In one data set the test system is healthy human subjects. As to conditions: cited from earlier work.
Data set [1] in a line: Plasma ketamine concentrations during intravenous bolus plus continuous infusion. The format is in vivo. The following applies: human. The procedure: (§1) Subjects checked in on day − 1 of each treatment period during which vital signs, electrocardiogram (ECG), and laboratory safety tests were repeated. On day 1 of each treatment period, subjects received a 3-, 10-, or 30-mg TAK-063 dose or placebo tablets. Participants then relaxed, slept, or watched movies while remaining in the research environment. Ketamine (0.12 mg/kg intravenous bolus over 60 s followed by a continuous infusion of 0.31 mg/kg/h over approximately 150 min) was administered 4 h after TAK-063 or placebo (Fig. 1). This ketamine dose was based on a previous study that achieved steady-state concentrations of 75 ng/mL and provided a robust BOLD signal with minimal psychotomimetic symptoms (De Simoni et al. [2013]).
Blood samples were collected for the determination of TAK-063 and ketamine concentrations, and ketamine concentrations were used to verify intravenous delivery of ketamine. Blood samples for determination of TAK-063 concentration were collected at pre-dose and at 0.5, 2, 3, 4.5, 6, 8, 10, 12, and 24 h post dose. Blood samples for determination of ketamine concentration were collected at 0.5, 1, 2, and 2.5 h after administration of ketamine. The target ketamine concentration was established at 75 ng/mL. PK samples were not collected from the arm in which ketamine was administered.

The test system of a further data set is healthy male subjects. Nature of the data set: Ketamine-induced changes in fMRI BOLD signal during resting state. The format is in vivo, human. As for the experimental part:
as §1
The scanning protocol for the current study was very comprehensive and included multiple MR approaches. This publication reports the BOLD fMRI data for the working memory task, but also resting state fMRI. The magnetic scanning portion of the neuroimaging test battery was initiated 20 min before ketamine dosing. Imaging was performed using a 3 Tesla Siemens Trio scanner. The MR scanning protocol was initiated 20 min before ketamine dosing; prior to scanning, a structural magnetization prepared rapid gradient echo (MPRAGE) scan was collected. As part of the scanning protocol, each subject received 20 min of scanning − 10 min arterial spin labeling (ASL) plus 10 min resting BOLD prior to ketamine infusion. After ketamine infusion, the resting state fMRI BOLD acquisition continued for an additional 10 min. Next, a Spatial Working Memory task-induced fMRI BOLD acquisition was performed for 15 min. Following these BOLD acquisitions, another 10 min ASL scan was acquired and a 10-min T1 relaxometry scan was conducted. The MR scanning sequence ended with a 5-min MPRAGE acquisition.
Fifty sequential gradient-echo echoplanar images (EPIs) sensitive to blood oxygenation level-dependent (BOLD) signal were collected in contiguous slices of 6-mm thickness, with 3000-ms repetition time, 40-ms echo time, 20 × 20-cm field of view, a 64 × 64 image matrix, 70° flip angle, and an in-plane resolution of 3 × 3 mm. A working memory challenge based on the expectancy A-X Continuous Performance Test (AX-CPT) paradigm was presented. The AX-CPT task was implemented in Eprime and presents 144 trials in four blocks of 36 trials. Before scanning, participants practiced the task (Barch et al. [2001]; MacDonald et al. [2003]).
We conducted a number of pre-processing steps to standardize examination of data after acquisition. These steps included (a) using the anatomical image (T1 weighted MPRAGE acquired for each subject at the beginning of the imaging session) to determine the parameters for spatial normalization to the EPI template image supplied with statistical parametric mapping (SPM) using a 12-parameter transformation; (b) registering functional images to correct for subject movement during the experimental paradigm; (c) normalizing functional images to transform images from analyzed subjects into the same standard space; (d) smoothing images (8-mm full width at half maximum [FWHM]) to minimize normalization artifacts and improve signal to noise ratio; (e) applying a high pass filter of 1200 s to the data following spatial smoothing to minimize the influence of very low frequency noise present in fMRI BOLD data without distorting the ketamine response profile. […]

For data set [2] the following is noted: 0.12 mg/kg iv bolus then 0.31 mg/kg/h infusion; ref De Simoni et al. [2013]; cited from earlier work.

For `Cc1nc2n(c(=O)c1CCN1CCC(c3noc4cc(F)ccc34)CC1)CCCC2` [risperidone], in the data set on healthy human subjects (ref Doyle et al. [2013], Shcherbinin et al. [2015]), the “ketamine-induced changes in BOLD signal” value is on record as “reversed”. The “ketamine-induced changes in brain perfusion (ASL)” value with healthy human subjects (ref Shcherbinin et al. [2015]) is “increased ketamine-induced perfusion changes”.
Broadly, the Cmax is the highest concentration seen after dosing. Usually Tmax stands for the time at which the peak concentration occurs. Consider `CNC1(c2ccccc2Cl)CCCCC1=O` (stereo not drawn) [ketamine], for which the concentration at 30 min in data set [1] (30 min post dose, with placebo or TAK-063 3 to 30 mg, range of means) is 69.9 to 83.3 ng/mL. The highest concentration (Cmax) in data set [1] (during continuous infusion, range of means across regimens) was in the range of 168 to 179 ng/mL. Besides, the Tmax in data set [1] (range across regimens) fell in the range of 2.3 to 2.5 h. The “activation in ROIs” value in the data set on healthy male subjects (percent BOLD signal change, resting state (Fig. 7)) is “increased activation in all ROIs examined”. The “effect on fMRI BOLD resting signal” value in the data set with healthy male subjects (placebo group, most regions studied) is “increased fMRI BOLD resting signal”. In addition, the “effect on fMRI BOLD in cingulate/BA25” value in the data set on healthy male subjects (placebo group, resting state) was “decrease in fMRI BOLD”. In addition, in data set [2], the steady-state concentration was 75 ng/mL.
